Here are results for 15 molecules from PubChem BioAssay (NCI).

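In this assay, cells in 96-well plates receive the compound at five concentrations for 48 hours. Endpoints are linearly interpolated between the surrounding concentrations. GI50 marks 50% less growth. TGI: concentration producing complete growth inhibition.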 Some results are limits rather than exact numbers.

Among the test systems are LOX IMVI melanoma; KM20L2 colon; IGROV1 ovarian; DMS 273 small cell lung; SNB-75 CNS; HOP-62 NSCLC; HOP-92 NSCLC; NCI/ADR-RES ovarian; 786-0 renal; HS 578T breast; PC-3 prostate; MDA-MB-435.
Holding throughout (test): DTP human tumour cell line panel, 48 h

On to `CC(c1ccccc1)/[N+]([O-])=C/c1ccccc1` (stereo unspecified), for which the TGI with LOX IMVI melanoma, in the experiment with KM20L2 colon, in the experiment on IGROV1 ovarian, in the experiment on DMS 273 small cell lung, in the experiment with SNB-75 CNS and with HOP-62 NSCLC was greater than 100 µM each time. The total growth inhibition concentration (TGI) with HOP-92 NSCLC is greater than 100 µM.
On to `CC1OC1C(=O)C1(O)C(C)C(O)C23OC2(C(O)c2c(O)cccc2C3=O)C1O` (stereo unspecified), for which the TGI is 0.629 µM in the experiment on LOX IMVI melanoma; 1.14 µM in the experiment with KM20L2 colon; 0.775 µM in the experiment with IGROV1 ovarian; 0.551 µM in the experiment on DMS 273 small cell lung; 0.747 µM with SNB-75 CNS; 0.462 µM in the experiment with HOP-62 NSCLC. Moreover, the total growth inhibition concentration (TGI) in the experiment on HOP-92 NSCLC worked out at 0.0971 µM; with NCI/ADR-RES ovarian, 0.732 µM.
Turning to `CN1CCN(c2cc(-c3cc4ccccc4o3)oc(=O)c2C#N)CC1`, the total growth inhibition concentration (TGI) in the experiment with LOX IMVI melanoma, in the experiment with KM20L2 colon, with IGROV1 ovarian, in the experiment with DMS 273 small cell lung and with SNB-75 CNS was greater than 100 µM each time.
Consider `O=C(NN1C(=O)CSC1c1ccc(C(F)(F)F)cc1)c1ccncc1` (stereo unspecified), for which the TGI with LOX IMVI melanoma, in the experiment on KM20L2 colon, in the experiment with IGROV1 ovarian, in the experiment on DMS 273 small cell lung, with SNB-75 CNS and in the experiment on HOP-62 NSCLC was greater than 100 µM in each case. Also, the TGI in the experiment with HOP-92 NSCLC and in the experiment on NCI/ADR-RES ovarian was greater than 100 µM each time.
`O=C(O)CC1OCC=C2CN3CCC45C6=CC(=O)C(=O)C([N+](=O)[O-])=C6NC4C1C2CC35` (stereo unspecified): the TGI in the experiment on LOX IMVI melanoma, in the experiment with IGROV1 ovarian, with 786-0 renal, in the experiment on SNB-75 CNS, with HS 578T breast and in the experiment on HOP-62 NSCLC was greater than 100 µM in each case. Further, the TGI in the experiment with HOP-92 NSCLC was greater than 100 µM; in the experiment with PC-3 prostate, greater than 100 µM; in the experiment on MDA-MB-435, 31.3 µM; in the experiment on NCI/ADR-RES ovarian, greater than 100 µM.
Take `C[C@]12CCc3sc(Nc4ccc(O)cc4)nc3C1=CC[C@@H]1[C@@H]2CC[C@]2(C)C(=O)CC[C@@H]12`: the GI50 is 1.99 µM in the experiment on IGROV1 ovarian; 2.76 µM in the experiment with SNB-75 CNS; 3.38 µM in the experiment on HS 578T breast; 3.28 µM in the experiment with HOP-62 NSCLC; 2.39 µM with HOP-92 NSCLC; 2.49 µM in the experiment with PC-3 prostate. The GI50 in the experiment on MDA-MB-435 was 2.08 µM; with NCI/ADR-RES ovarian, 3.27 µM. For the same molecule, the TGI is 5.02 µM in the experiment on IGROV1 ovarian; greater than 100 µM in the experiment with SNB-75 CNS; greater than 100 µM in the experiment with HS 578T breast; 12.6 µM in the experiment with HOP-62 NSCLC; 5.65 µM in the experiment with HOP-92 NSCLC; 8.15 µM with PC-3 prostate. Besides, the figures for the total growth inhibition concentration (TGI) in the experiment on MDA-MB-435 and in the experiment with NCI/ADR-RES ovarian were 5.32 µM and greater than 100 µM, respectively.
Regarding `CC(CCC(=O)O)C1CCC2C3C(O)CC4CC(O)CCC4(C)C3CC(O)C12C` (stereo unspecified), the TGI with LOX IMVI melanoma, in the experiment with IGROV1 ovarian, in the experiment with 786-0 renal, in the experiment with SNB-75 CNS, in the experiment with HS 578T breast and with HOP-62 NSCLC was greater than 100 µM throughout. Further, the total growth inhibition concentration (TGI) in the experiment with HOP-92 NSCLC, in the experiment with PC-3 prostate, in the experiment on MDA-MB-435 and with NCI/ADR-RES ovarian was greater than 100 µM throughout.
On to `O=C(O)CC1(CC(=O)O)Nc2ccccc2SC1=O`, for which the total growth inhibition concentration (TGI) in the experiment with LOX IMVI melanoma, in the experiment on IGROV1 ovarian, with 786-0 renal, in the experiment on SNB-75 CNS, in the experiment with HS 578T breast and in the experiment on HOP-62 NSCLC was greater than 100 µM each time. Besides, the concentration for total growth inhibition (TGI) in the experiment on HOP-92 NSCLC, in the experiment on PC-3 prostate, with MDA-MB-435 and in the experiment on NCI/ADR-RES ovarian was greater than 100 µM in each case.
`C/C(=N\NC(=S)Nc1ccc(C)cc1)c1nc2ncccc2[nH]1`: the total growth inhibition concentration (TGI) in the experiment with LOX IMVI melanoma came to 8.29 µM; with IGROV1 ovarian, 17.3 µM; in the experiment on 786-0 renal it was 18.7 µM; in the experiment with SNB-75 CNS it was 22.5 µM; with HS 578T breast, 58.9 µM; with HOP-62 NSCLC, 39.2 µM. Also, the concentration for total growth inhibition (TGI) in the experiment with HOP-92 NSCLC is 24.1 µM; in the experiment with PC-3 prostate, 32.5 µM; with MDA-MB-435, 13.3 µM; with NCI/ADR-RES ovarian, greater than 100 µM.
Regarding `COc1ccc(-c2c3c(nc4nc(SC)nc(SC)c24)CCCC3)cc1OC`, the TGI is greater than 100 µM in the experiment on LOX IMVI melanoma; greater than 100 µM in the experiment on IGROV1 ovarian; greater than 100 µM in the experiment with SNB-75 CNS; 86.3 µM with HS 578T breast; greater than 100 µM with HOP-62 NSCLC; greater than 100 µM in the experiment with HOP-92 NSCLC. Besides, the total growth inhibition concentration (TGI) with PC-3 prostate and with MDA-MB-435 was greater than 100 µM throughout.
Regarding `CCSc1nc(=[N+]2CCCC2)ss1`, the TGI is 55.2 µM in the experiment with LOX IMVI melanoma; greater than 100 µM in the experiment with KM20L2 colon; greater than 90 µM with IGROV1 ovarian; greater than 87 µM in the experiment with 786-0 renal; greater than 100 µM in the experiment on DMS 273 small cell lung; greater than 96.6 µM in the experiment with SNB-75 CNS. Also, the concentration for total growth inhibition (TGI) in the experiment with HS 578T breast is greater than 100 µM; in the experiment on HOP-62 NSCLC it was greater than 100 µM; in the experiment on HOP-92 NSCLC, greater than 100 µM; in the experiment on PC-3 prostate, greater than 100 µM; in the experiment with MDA-MB-435 it was 42.5 µM; in the experiment with NCI/ADR-RES ovarian, greater than 100 µM.
Turning to `COc1cc2c(cc1OC)C(C)N(C)c1c-2c(OC(C)=O)cc2cc(OC)c(OC)cc12` (stereo unspecified), the total growth inhibition concentration (TGI) in the experiment on LOX IMVI melanoma is 39.8 µM; with 786-0 renal, 62 µM; in the experiment with SNB-75 CNS, greater than 79 µM; in the experiment on HS 578T breast, greater than 57.1 µM; in the experiment on HOP-62 NSCLC, greater than 79.7 µM; with PC-3 prostate it was greater than 90.8 µM. In addition, the concentration for total growth inhibition (TGI) in the experiment with MDA-MB-435 came to 35.6 µM; in the experiment with NCI/ADR-RES ovarian, 33.2 µM.
Take `O=C1OCC/C1=C/c1ccc(N=Nc2c(O)ccc3ccccc23)cc1`: the total growth inhibition concentration (TGI) in the experiment on IGROV1 ovarian is 54.7 µM; with 786-0 renal it was 36.6 µM; with SNB-75 CNS it was 49.2 µM; in the experiment on HS 578T breast it was 54.3 µM; in the experiment with HOP-62 NSCLC, 45.8 µM; in the experiment on HOP-92 NSCLC it was 47.3 µM. In addition, the TGI worked out at 49.6 µM in the experiment with PC-3 prostate, 56.5 µM in the experiment on MDA-MB-435 and 41.7 µM with NCI/ADR-RES ovarian.
Consider `NC(=S)N/N=C1\c2ccccc2CCC1CCC1(O)CCc2ccccc2C1=O` (stereo unspecified), for which the concentration for total growth inhibition (TGI) was 44.3 µM in the experiment with LOX IMVI melanoma; greater than 100 µM in the experiment with IGROV1 ovarian; 45 µM in the experiment on SNB-75 CNS; 63 µM in the experiment with HS 578T breast; greater than 100 µM with HOP-62 NSCLC; 88.7 µM with PC-3 prostate. Further, the figures for the TGI in the experiment on MDA-MB-435 and in the experiment on NCI/ADR-RES ovarian were 46.4 µM and 79.1 µM, respectively.
As to `CCc1nnc(-c2nsc3ccccc23)s1`, the TGI with LOX IMVI melanoma, in the experiment with KM20L2 colon, in the experiment on IGROV1 ovarian, in the experiment with DMS 273 small cell lung, with SNB-75 CNS and in the experiment with HOP-62 NSCLC was greater than 100 µM in each case. This molecule also yielded a TGI in the experiment with HOP-92 NSCLC greater than 100 µM.

For orientation: TGI means the concentration at which net growth stops. High values mean lower sensitivity of the cells, low ones greater sensitivity of the cells. In general, GI50 refers to the concentration giving 50% growth inhibition.
